Values after ≈ are worked out from the molar mass of the structure shown. Where a name gives a salt, the structure may show the parent alone. Read-outs that look alike come from different tables or passages of the source.
What was measured:
Type in all cases: cell-based
[1] = tested on: Bacillus subtilis PCI 219; assay: In vitro antibacterial activity, MIC (standard strain); conditions: PCI219; Bacillus subtilis PCI 219, 10^6 cells/ml, standard strain; read-out: MIC
[2] = tested on: Staphylococcus aureus 209 P; assay: as above; conditions: 10^6 cells/ml, read-out: MIC
[3] = tested on: S. aureus IID 670 (Terajima); assay: as above; conditions: Staphylococcus aureus, IID670, 10^6 cells/ml
S. epidermidis IID 866 = assay: as above; conditions: Staphylococcus epidermidis, IID866, S. epidermidis IID 866, 10^6 cells/ml
S. pneumoniae IID 552 = assay: as above; conditions: Streptococcus pneumoniae, IID552, S. pneumoniae IID 552, 10^6 cells/ml
S. faecalis IID 682 = assay: as above; conditions: Enterococcus faecalis, IID682, S. faecalis IID 682, 10^6 cells/ml
[4] = tested on: Escherichia coli NIHJ JC-2; assay: as above; conditions: NIHJJC2, Escherichia coli NIHJ JC-2, 10^6 cells/ml
[5] = tested on: Proteus vulgaris IFO 3167; assay: as above; conditions: Proteus vulgaris, IFO3167
[6] = tested on: Klebsiella pneumoniae I-220S; assay: as above; conditions: I220S; Klebsiella pneumoniae I-220S, 10^6 cells/ml, standard strain; read-out: MIC
K. pneumoniae KY(GN)6445 = assay: as above; conditions: Klebsiella pneumoniae
[7] = tested on: Enterobacter cloacae IID 977; assay: as above; conditions: IID977, Enterobacter cloacae IID 977, 10^6 cells/ml
[8] = tested on: Citrobacter freundii IID 976; assay: as above; conditions: IID976
[9] = tested on: Serratia marcescens IID 618; assay: as above; conditions: IID618, Serratia marcescens IID 618, 10^6 cells/ml, read-out: MIC
[10] = tested on: Pseudomonas aeruginosa V-1; assay: as above; conditions: V1; Pseudomonas aeruginosa V-1, 10^6 cells/ml, standard strain; read-out: MIC
P. aeruginosa IFO 12689 = assay: as above; conditions: Pseudomonas aeruginosa, IFO12689, P. aeruginosa IFO 12689, 10^6 cells/ml, standard strain; read-out: MIC
[11] = tested on: Yersinia enterocolitica IID 981; assay: as above; conditions: IID981; Yersinia enterocolitica IID 981, 10^6 cells/ml, standard strain; read-out: MIC
[12] = tested on: Acinetobacter anitratus IID 876; assay: as above; conditions: Acinetobacter calcoaceticus, IID876; Acinetobacter anitratus IID 876, 10^6 cells/ml, standard strain; read-out: MIC
[13] = tested on: Alcaligenes faecalis 0114002; assay: as above; conditions: Alcaligenes faecalis 0114002, 10^6 cells/ml
[14] = tested on: Bacteroides fragilis GM 7000; assay: as above; conditions: GM7000; Bacteroides fragilis GM 7000, 10^6 cells/ml, standard strain; read-out: MIC
B. fragilis 25285 = assay: as above; conditions: Bacteroides fragilis; B. fragilis 25285, 10^6 cells/ml, standard strain; read-out: MIC
[15] = tested on: B. thetaiotaomicron (0661); assay: as above; conditions: Bacteroides thetaiotaomicron; B. thetaiotaomicron (0661), 10^6 cells/ml, standard strain; read-out: MIC
[16] = tested on: F. varium KYA (ATCC) 8501; assay: as above; conditions: Fusobacterium varium, F. varium KYA (ATCC) 8501, 10^6 cells/ml
[17] = tested on: Clostridium difficile I-E; assay: as above; conditions: Clostridioides difficile, 10^6 cells/ml
[18] = tested on: Peptostreptococcus anaerobius KYA 27337; assay: as above; conditions: KYA27337, Peptostreptococcus anaerobius KYA 27337, 10^6 cells/ml
Pst. micros UPI 5464-1 = assay: as above; conditions: Parvimonas micra, UPI54641, Pst. micros UPI 5464-1, 10^6 cells/ml
S. pneumoniae 15 = assay: In vitro antibacterial activity, MIC (clinical isolates); conditions: Streptococcus pneumoniae; S. pneumoniae 15, 10^6 cells/ml, clinical isolate
S. pneumoniae 2950 = assay: as above; conditions: Streptococcus pneumoniae; S. pneumoniae 2950, 10^6 cells/ml, clinical isolate
S. pneumoniae 3227 = assay: as above; conditions: Streptococcus pneumoniae; S. pneumoniae 3227, 10^6 cells/ml, clinical isolate
S. pyogenes 4372 = assay: as above; conditions: Streptococcus pyogenes; S. pyogenes 4372, 10^6 cells/ml, clinical isolate
S. agalactiae 4394 = assay: as above; conditions: Streptococcus agalactiae; S. agalactiae 4394, 10^6 cells/ml, clinical isolate
S. agalactiae 4049 = assay: as above; conditions: Streptococcus agalactiae; S. agalactiae 4049, 10^6 cells/ml, clinical isolate
S. agalactiae 4342 = assay: as above; conditions: Streptococcus agalactiae; S. agalactiae 4342, 10^6 cells/ml, clinical isolate
S. agalactiae 4470 = assay: as above; conditions: Streptococcus agalactiae; S. agalactiae 4470, 10^6 cells/ml, clinical isolate
S. faecalis 402 = assay: as above; conditions: Enterococcus faecalis; S. faecalis 402, 10^6 cells/ml, clinical isolate

| SMILES | MIC [1] [µg/mL] | MIC [2] [µg/mL] | MIC [3] [µg/mL] | MIC (S. epidermidis IID 866) [µg/mL] | MIC (S. pneumoniae IID 552) [µg/mL] | MIC (S. faecalis IID 682) [µg/mL] | MIC [4] [µg/mL] | MIC [5] [µg/mL] | MIC [6] [µg/mL] | MIC [7] [µg/mL] | MIC [9] [µg/mL] | MIC [10] [µg/mL] | MIC (P. aeruginosa IFO 12689) [µg/mL] | MIC [11] [µg/mL] | MIC [12] [µg/mL] | MIC [13] [µg/mL] | MIC [14] [µg/mL] | MIC (B. fragilis 25285) [µg/mL] | MIC [15] [µg/mL] | MIC [16] [µg/mL] | other results |
| --- | --- | --- | --- | --- | --- | --- | --- | --- | --- | --- | --- | --- | --- | --- | --- | --- | --- | --- | --- | --- | --- |
| CC1CN(c2c(F)cc3c(=O)c(C(=O)O)cn(C4CC4)c3c2F)CCN1 (stereo not drawn) [Example 2, l-Cyclopropyl-6,8-difluoro-l,4-dihydro-7-(3-methyl-l-piperazinyl)-4-oxoquinoline-3-carboxylic acid] | 0.05 (≈ 0.138 µM) | 0.2 (≈ 0.55 µM) | 0.2 (≈ 0.55 µM) | 0.2 (≈ 0.55 µM) | 0.78 (≈ 2.15 µM) | 0.78 (≈ 2.15 µM) | ≤ 0.006 | 0.0125 (≈ 0.0344 µM) | 0.05 (≈ 0.138 µM) | 0.05 (≈ 0.138 µM) | 0.05 (≈ 0.138 µM) | 0.2 (≈ 0.55 µM) | 0.78 (≈ 2.15 µM) | 0.05 (≈ 0.138 µM) | 0.006 (≈ 0.0165 µM) | 0.2 (≈ 0.55 µM) | 1.56 (≈ 4.29 µM) | 0.78 (≈ 2.15 µM) | 3.13 (≈ 8.61 µM) | 6.25 (≈ 17.2 µM) | MIC (K. pneumoniae KY(GN)6445): 0.0125 µg/mL (≈ 0.0344 µM); MIC ([8]; Citrobacter freundii): 0.0125 µg/mL (≈ 0.0344 µM); MIC [17]: 6.25 µg/mL (≈ 17.2 µM); MIC [18]: 1.56 µg/mL (≈ 4.29 µM); MIC (Pst. micros UPI 5464-1): 0.2 µg/mL (≈ 0.55 µM); MIC (S. pneumoniae 15): 0.78 µg/mL (≈ 2.15 µM); MIC (S. pneumoniae 2950): 1.56 µg/mL (≈ 4.29 µM); MIC (S. pneumoniae 3227): 1.56 µg/mL (≈ 4.29 µM); MIC (S. pyogenes 4372): 0.78 µg/mL (≈ 2.15 µM); MIC (S. agalactiae 4394): 1.56 µg/mL (≈ 4.29 µM); MIC (S. agalactiae 4049): 1.56 µg/mL (≈ 4.29 µM); MIC (S. agalactiae 4342): 0.78 µg/mL (≈ 2.15 µM); MIC (S. agalactiae 4470): 0.78 µg/mL (≈ 2.15 µM); MIC (S. faecalis 402): 1.56 µg/mL (≈ 4.29 µM) |
| CC1CN(c2c(F)cc3c(=O)c(C(=O)O)cn(C4CC4)c3c2Cl)CCN1 (stereo not drawn) [Example 5, 8-Chloro-l-cyclopropyl-6-fluoro-1,4-dihydro-7-(3-methyl-1-piperazinyl)-4-oxoquinoline-3-carboxylic acid hydrochloride] | 0.025 | 0.1 | 0.1 | 0.1 | 0.78 | 0.39 | ≤ 0.006 | 0.0125 | 0.05 | 0.05 | 0.05 | 0.78 | 1.56 | 0.05 | 0.05 | 0.39 | 0.39 | 0.39 | 1.56 | 3.13 | MIC (K. pneumoniae KY(GN)6445; K. pneumoniae KY(GN)6445, 10^6 cells/ml, standard strain, read-out: MIC): 0.025 µg/mL; MIC ([8]; Citrobacter freundii IID 976, 10^6 cells/ml, standard strain, read-out: MIC): 0.025 µg/mL; MIC [17]: 3.13 µg/mL; MIC [18]: 0.39 µg/mL; MIC (Pst. micros UPI 5464-1): 0.2 µg/mL; MIC (S. pneumoniae 15): 0.78 µg/mL; MIC (S. pneumoniae 2950): 0.78 µg/mL; MIC (S. pneumoniae 3227): 0.78 µg/mL; MIC (S. pyogenes 4372): 0.39 µg/mL; MIC (S. agalactiae 4394): 0.78 µg/mL; MIC (S. agalactiae 4049): 0.78 µg/mL; MIC (S. agalactiae 4342): 0.78 µg/mL; MIC (S. agalactiae 4470): 0.78 µg/mL; MIC (S. faecalis 402): 0.78 µg/mL |

— patent EP0178388A1, “Quinolinecarboxylic acid derivatives” (KYORIN PHARMACEUTICAL CO., LTD., priority 1984, dated 1986)
